One assay has as its target GCN2 (Homo sapiens, UniProt Q9P2K8). Kind of assay: GCN2 enzyme assay. The format is biochemical.
A further assay has as its target T1, SYK (Homo sapiens, UniProt P43405).
T1 construct: 2.5 nM SYK, 400 nM Biotin-Aha-Aha-KEDPDYEWPSAKK
Kind of assay: SYK flash plate assay (enzyme assay). Type of assay: biochemical. In a few lines:
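Radiometric Flashplate format: biotinylated peptide substrate (400 nM) and 33P-labelled ATP (10 μM) react with 2.5 nM enzyme for 1 hour at 30 °C in Hepes buffer, pH 7.5. After EDTA quench and washing, counts are taken; staurosporine defines non-specific signal, and IC50 values are derived.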

Structures are written as SMILES. Where only a bound is given, the exact number is not on record here.

From patent US9120804B2, “8-substituted 2-amino-[1,2,4] triazolo [1, 5-A] pyrazines as Syk tryrosine kinase inhibitors and GCN2 serin kinase inhibitors” (Merck Patent GmbH, priority 2012, dated 2015) come the findings set out here.

Sequence of GCN2 (Q9P2K8 whole entry): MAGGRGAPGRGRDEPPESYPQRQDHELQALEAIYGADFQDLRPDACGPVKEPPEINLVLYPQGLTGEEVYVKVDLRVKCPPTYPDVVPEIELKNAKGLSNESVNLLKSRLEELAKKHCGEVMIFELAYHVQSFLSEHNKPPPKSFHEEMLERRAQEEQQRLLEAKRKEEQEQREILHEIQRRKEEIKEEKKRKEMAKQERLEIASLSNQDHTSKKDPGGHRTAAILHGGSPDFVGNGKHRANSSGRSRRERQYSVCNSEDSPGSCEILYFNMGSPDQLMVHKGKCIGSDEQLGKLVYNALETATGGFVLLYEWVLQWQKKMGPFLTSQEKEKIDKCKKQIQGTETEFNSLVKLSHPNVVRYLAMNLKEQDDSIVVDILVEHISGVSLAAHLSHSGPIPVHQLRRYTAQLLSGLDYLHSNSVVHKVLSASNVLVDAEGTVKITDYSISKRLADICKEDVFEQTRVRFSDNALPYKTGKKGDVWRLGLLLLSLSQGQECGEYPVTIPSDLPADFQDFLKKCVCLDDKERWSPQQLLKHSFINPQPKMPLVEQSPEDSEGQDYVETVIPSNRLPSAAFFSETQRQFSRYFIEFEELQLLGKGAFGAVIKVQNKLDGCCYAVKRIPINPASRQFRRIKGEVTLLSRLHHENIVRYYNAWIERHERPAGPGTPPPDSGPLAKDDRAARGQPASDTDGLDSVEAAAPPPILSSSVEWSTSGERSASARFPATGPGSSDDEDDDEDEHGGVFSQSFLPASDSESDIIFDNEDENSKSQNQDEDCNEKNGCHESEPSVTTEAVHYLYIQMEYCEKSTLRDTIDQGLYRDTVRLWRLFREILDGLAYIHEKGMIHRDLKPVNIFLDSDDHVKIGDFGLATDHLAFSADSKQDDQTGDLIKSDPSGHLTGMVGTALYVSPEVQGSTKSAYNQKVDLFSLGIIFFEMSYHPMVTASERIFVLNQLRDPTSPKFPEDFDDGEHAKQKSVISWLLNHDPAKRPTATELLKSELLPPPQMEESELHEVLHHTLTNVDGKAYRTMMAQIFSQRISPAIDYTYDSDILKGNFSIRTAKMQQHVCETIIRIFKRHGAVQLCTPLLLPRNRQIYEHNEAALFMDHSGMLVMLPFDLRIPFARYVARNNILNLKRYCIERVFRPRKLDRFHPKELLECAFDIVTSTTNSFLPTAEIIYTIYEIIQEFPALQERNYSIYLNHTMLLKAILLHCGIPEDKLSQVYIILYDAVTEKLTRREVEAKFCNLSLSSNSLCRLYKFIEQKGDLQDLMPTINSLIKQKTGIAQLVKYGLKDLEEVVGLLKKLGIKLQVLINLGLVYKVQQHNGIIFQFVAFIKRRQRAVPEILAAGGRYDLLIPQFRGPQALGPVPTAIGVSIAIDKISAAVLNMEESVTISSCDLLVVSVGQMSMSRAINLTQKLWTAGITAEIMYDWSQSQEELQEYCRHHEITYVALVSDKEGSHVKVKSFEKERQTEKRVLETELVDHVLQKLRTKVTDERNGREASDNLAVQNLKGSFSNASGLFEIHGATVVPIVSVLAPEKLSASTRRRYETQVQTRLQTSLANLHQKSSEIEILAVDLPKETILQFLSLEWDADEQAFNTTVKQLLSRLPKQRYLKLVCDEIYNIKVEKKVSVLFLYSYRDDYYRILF

For the compound `Cn1cc(-c2nccn3nc(Nc4ccc5c(c4)NC(=O)CC5(C)C)nc23)cn1` [C144, 4,4-dimethyl-7-[8-(1-methyl-1H-pyrazol-4-yl)-[1,2,4]triazolo[1,5-a]pyrazin-2-ylamino]-3,4-dihydro-1H-quinolin-2-one], the figures for the IC50 at GCN2 and on SYK were 0.3 to 3 µM and less than 0.1 µM, respectively.
On the same counts, the results for `Cn1cc(-c2nccn3nc(Nc4ccc5c(c4)NC(=O)C5(C)O)nc23)cn1` (stereo not shown) [C71, 3-hydroxy-3-methyl-6-[8-(1-methyl-1H-pyrazol-4-yl)-[1,2,4]triazolo[1,5-a]pyrazin-2-ylamino]-1,3-dihydro-indol-2-one] are 0.3 to 3 µM and 0.1 to 0.3 µM.
For `Cn1cc(-c2nccn3nc(Nc4ccc5c(c4)NC(=O)OC5(C)C)nc23)cn1` [C114, 4,4-dimethyl-7-[8-(1-methyl-1H-pyrazol-4-yl)-[1,2,4]triazolo[1,5-a]pyrazin-2-ylamino]-1,4-dihydro-benzo[d][1,3]oxazin-2-one], in that order: 0.3 to 3 µM and less than 0.1 µM.
Regarding `COc1cc(Nc2nc3c(N4CCCC(C(=O)NCCO)C4)nccn3n2)cc(OC)c1` (stereo not shown) [C45, 1-[2-(3,5-dimethoxy-phenylamino)-[1,2,4]triazolo[1,5-a]pyrazin-8-yl]-piperidine-3-carboxylic acid (2-hydroxy-ethyl)-amide], the IC50 against GCN2 and at SYK was 3 to 50 µM in each case.
With `CC(C)C1(C(C)C)OC(=O)Nc2cc(Nc3nc4c(-c5cnn(C)c5)nccn4n3)ccc21` [C119, 4,4-diisopropyl-7-[8-(1-methyl-1H-pyrazol-4-yl)-[1,2,4]triazolo[1,5-a]pyrazin-2-ylamino]-1,4-dihydro-benzo[d][1,3]oxazin-2-one], the results for the IC50 against GCN2 and at SYK were 3 to 50 µM and 0.1 to 0.3 µM, respectively.
For `Cc1nn(C)cc1-c1nccn2nc(Nc3ccc4c(c3)NC(=O)C4(C)C)nc12` [C69, 6-[8-(1,3-dimethyl-1H-pyrazol-4-yl)-[1,2,4]triazolo[1,5-a]pyrazin-2-ylamino]-3,3-dimethyl-1,3-dihydro-indol-2-one], the IC50 against GCN2 is 0.3 to 3 µM; against SYK, 0.1 to 0.3 µM.
For `Cn1nnc2ccc(Nc3nc4c(-c5ccccc5-c5ccccc5)nccn4n3)cc21` [C29], the IC50 was in the range of 3 to 50 µM at GCN2 and 0.1 to 0.3 µM against SYK.
As for `COc1cc(Nc2nc3c(N4CCC(N)CC4)nccn3n2)cc(OC)c1` [C50, [8-(4-amino-piperidin-1-yl)-[1,2,4]triazolo[1,5-a]pyrazin-2-yl]-(3,5-dimethoxy-phenyl)-amine], the IC50 fell in the range of 3 to 50 µM on GCN2 and 0.3 to 3 µM at SYK.
For `Cn1cc(-c2nccn3nc(Nc4ccc5c(c4)CS(=O)(=O)N5)nc23)cn1` [C115, (2,2-dioxo-2,3-dihydro-1H-2I6-benzo[c]isothiazol-5-yl)-[8-(1-methyl-1H-pyrazol-4-yl)-[1,2,4]triazolo[1,5-a]pyrazin-2-yl]-amine], the IC50 against GCN2 lay within 3 to 50 µM; on SYK it was 0.1 to 0.3 µM.
Regarding `Cn1cc(-c2nccn3nc(Nc4ccc5c(c4)NC(=O)C(C)(C)O5)nc23)cn1` [C80, 2,2-dimethyl-6-[8-(1-methyl-1H-pyrazol-4-yl)-[1,2,4]triazolo[1,5-a]pyrazin-2-ylamino]-4H-benzo[1,4]oxazin-3-one], the IC50 against GCN2 was 3 to 50 µM; against SYK, 0.1 to 0.3 µM.
For `CC1(C)C(=O)Nc2cc(Nc3nc4c(-c5ccc(S(C)(=O)=O)cc5)nccn4n3)ccc21` [C70, 6-[8-(4-Methanesulfonyl-phenyl)-[1,2,4]triazolo[1,5-a]pyrazin-2-ylamino]-3,3-dimethyl-1,3-dihydro-indol-2-one], in that order: 0.3 to 3 µM and 0.1 to 0.3 µM.
On the same counts, the results for `NC(=O)C1(c2ccc(Nc3nc4c(-c5cn[nH]c5)nccn4n3)cc2)CC1` [C66, 1-{4-[8-(1H-pyrazol-4-yl)-[1,2,4]triazolo[1,5-a]pyrazin-2-ylamino]-phenyl}-cyclopropanecarboxylic acid amide] are 3 to 50 µM and 0.1 to 0.3 µM.
On to `CC1(C)C(=O)Nc2cc(Nc3nc4c(N5CCC6(C5)NC(=O)NC6=O)nccn4n3)ccc21` (stereo not shown) [C108, 7-[2-(3,3-dimethyl-2-oxo-2,3-dihydro-1H-indol-6-ylamino)-[1,2,4]triazolo[1,5-a]pyrazin-8-yl]-1,3,7-triaza-spiro[4.4]nonane-2,4-dione], for which the figures for the IC50 on GCN2 and on SYK were 3 to 50 µM and less than 0.1 µM, respectively.
With `COc1cc(Nc2nc3c(N4CCNC(=O)C4)nccn3n2)cc(OC)c1` [C43, 4-[2-(3,5-dimethoxy-phenylamino)-[1,2,4]triazolo[1,5-a]pyrazin-8-yl]-piperazin-2-one], the IC50 against GCN2 was in the range of 3 to 50 µM; against SYK, 0.3 to 3 µM.
With `COc1cccc(Nc2nc3c(-c4cnn(C)c4)nccn3n2)c1` [C8, (3-Methoxy-phenyl)-[8-(1-methyl-1H-pyrazol-4-yl)-[1,2,4]triazolo[1,5-a]pyrazin-2-yl]-amine], the IC50 against GCN2 and on SYK was 3 to 50 µM throughout.
For `CC1(C)C(=O)Nc2cc(Nc3nc4c(N5CCC(F)(F)C5)nccn4n3)ccc21` [C105, 6-[8-(3,3-difluoro-pyrrolidin-1-yl)-[1,2,4]triazolo[1,5-a]pyrazin-2-ylamino]-3,3-dimethyl-1,3-dihydro-indol-2-one], the IC50 is 3 to 50 µM on GCN2 and less than 0.1 µM against SYK.
As for `CC(C)C(O)c1n[nH]c2cc(Nc3nc4c(-c5cnn(C)c5)nccn4n3)ccc12` (stereo not shown) [C142, 2-methyl-1-{6-[8-(1-methyl-1H-pyrazol-4-yl)-[1,2,4]triazolo[1,5-a]pyrazin-2-ylamino]-1H-indazol-3-yl}-propan-1-ol], the IC50 was 0.3 to 3 µM against GCN2 and 0.1 to 0.3 µM at SYK.
Turning to `CN(c1nccn2nc(Nc3ccc4c(c3)NC(=O)C4(C)C)nc12)C1CCCNC1` (stereo not shown) [C88, 3,3-dimethyl-6-[8-(methyl-piperidin-3-yl-amino)-[1,2,4]triazolo[1,5-a]pyrazin-2-ylamino]-1,3-dihydro-indol-2-one], the IC50 was 3 to 50 µM at GCN2 and 0.3 to 3 µM on SYK.
On to `Cn1cc(-c2nccn3nc(Nc4ccc5c(c4)NC(=O)C5)nc23)cn1` [C60, 6-[8-(1-methyl-1H-pyrazol-4-yl)-[1,2,4]triazolo[1,5-a]pyrazin-2-ylamino]-1,3-dihydro-indol-2-one], for which the IC50 against GCN2 and against SYK was 0.3 to 3 µM in each case.
On to `Cn1cc(-c2nccn3nc(Nc4cccc(S(N)(=O)=O)c4)nc23)cn1` [C14, 3-[8-(1-Methyl-1H-pyrazol-4-yl)-[1,2,4]triazolo[1,5-a]pyrazin-2-ylamino]-benzenesulfonamide], for which the IC50 at GCN2 lay within 0.3 to 3 µM; at SYK, 3 to 50 µM.
As to `CN(c1nccn2nc(Nc3ccc4c(c3)NC(=O)C4(C)C)nc12)C1CCCCC1` [C78, 6-[8-(cyclohexyl-methyl-amino)-[1,2,4]triazolo[1,5-a]pyrazin-2-ylamino]-3,3-dimethyl-1,3-dihydro-indol-2-one], the IC50 on GCN2 is 3 to 50 µM; at SYK, 0.3 to 3 µM.
As for `Cn1cc(-c2nccn3nc(Nc4ccc(S(N)(=O)=O)cc4)nc23)cn1` [C16, 4-[8-(1-Methyl-1H-pyrazol-4-yl)-[1,2,4]triazolo[1,5-a]pyrazin-2-ylamino]-benzenesulfonamide], the IC50 fell in the range of 3 to 50 µM at GCN2 and 0.3 to 3 µM against SYK.
In the case of `CC1(C)C(=O)Nc2cc(Nc3nc4c(N5CCc6[nH]cnc6C5)nccn4n3)ccc21` [C103, 3,3-dimethyl-6-[8-(1,4,6,7-tetrahydro-imidazo[4,5-c]pyridin-5-yl)-[1,2,4]triazolo[1,5-a]pyrazin-2-ylamino]-1,3-dihydro-indol-2-one], the IC50 is 3 to 50 µM against GCN2 and less than 0.1 µM against SYK.
